Experimental data as given in ChEMBL document CHEMBL5360561, “Design, synthesis and biological evaluation of fluorinated selective estrogen receptor degraders (FSERDs) --- A promising strategy for advanced ER positive breast cancer” (Eur J Med Chem, 2023).
Each block holds one compound with its values, some of them ahead of it. Activity calls are given as the source filed them. The calls are words filed in the database; no cut-off is given here.

Columns and labels:
[1] = Plasma concentration in ICR mouse at 100 mg/kg, po and measured after 0.5 hrs by LC-MS analysis; type: ADME, organism-based
MCF7 [2] = assay: Induction of ER degradation in human MCF7 cells at 10 uM incubated for 24 hrs by Western blot analysis; type: cell-based
Ishikawa = assay: Antiproliferative activity against human Ishikawa cells assessed as cell growth inhibition at 20 uM incubated for 3 days by MTT assay; type: functional; conditions: 72 h, time 3 day
MCF7 [3] = assay: Antiproliferative activity against human MCF7 cells assessed as cell growth inhibition incubated for 5 days by MTT assay; type: functional, cell-based; conditions: MCF7, 120 h
[4] = Cmax in ICR mouse at 30 mg/kg, po and measured upto 24 hrs by LC-MS analysis; type: ADME, organism-based; design: time < 24 hrs, dose 30 mg/kg, route po; conditions: in vivo
[5] = Toxicity in mouse xenografted with human MCF7 cells assessed as morphological changes in kidney at 30 mg/kg,po for 30 days daily by Hematoxylin and eosin staining based microscopy; type: organism-based; conditions: in vivo, 720 h, time 30 day
[6] = AUCt in ICR mouse at 3 mg/kg, iv and measured upto 24 hrs by LC-MS analysis; type: ADME, organism-based; design: dose 3 mg/kg, time < 24 hrs, route iv; conditions: in vivo
[7] = Toxicity in mouse xenografted with human MCF7 cells assessed as morphological changes in heart at 30 mg/kg,po for 30 days daily by Hematoxylin and eosin staining based microscopy; type: organism-based; conditions: in vivo, 720 h, time 30 day
[8] = Half life in ICR mouse at 3 mg/kg, iv and measured upto 24 hrs by LC-MS analysis; type: ADME, organism-based; conditions: in vivo
MCF7 [9] = assay: Antitumor activity against human MCF7 cells xenografted in nude mouse assessed as tumor growth inhibition at 30 mg/kg,po for 30 days daily; type: functional, organism-based; conditions: time 30.0 day
MCF7 [10] = assay: Induction of ER degradation in human MCF7 cells at 10 uM incubated for 24 hrs by DAPI staining based immunofluorescence analysis; type: cell-based
MCF7 [11] = assay: Antitumor activity against human MCF7 cells xenografted in nude mouse assessed as reduction in Ki67 expression at 30 mg/kg,po for 30 days daily by immunohistochemical analysis; type: functional, organism-based; conditions: time 30.0 day
[12] = Oral bioavailability in ICR mouse at 30 mg/kg and measured upto 24 hrs by LC-MS analysis; type: ADME, organism-based; conditions: in vivo
Mus musculus [13] = assay: In vivo ER degradation in mouse xenografted with human MCF7 cells assessed as reduction in PR expression level in tumor at 30 mg/kg,po for 30 days daily by […]; type: functional, organism-based; conditions: time 30.0 day
[14] = AUC (0 to infinity) in ICR mouse at 3 mg/kg, iv and measured upto 24 hrs by LC-MS analysis; type: ADME, organism-based; design: time < 24 hrs, dose 3 mg/kg, route iv; conditions: in vivo
MCF7 [15] = assay: Induction of ER degradation in human MCF7 cells at 0.001 to 10 uM incubated for 24 hrs by Western blot analysis; type: cell-based; conditions: dose 0.001-10 µM
[16] = Apparent volume of distribution in ICR mouse at 3 mg/kg, iv and measured upto 24 hrs by LC-MS analysis; type: ADME, organism-based; conditions: in vivo, read-out: Vz
MCF7 [17] = assay: Induction of cell cycle arrest in human MCF7 cells assessed as accumulation at G0/G1 phase at 10 uM incubated for 24 hrs by flow cytometry (Rvb= 46.53 +/- 0.44%); type: functional
[18] = MRT(t) in ICR mouse at 3 mg/kg, iv and measured upto 24 hrs by LC-MS analysis; type: ADME, organism-based; conditions: in vivo
[19] = Tmax in ICR mouse at 30 mg/kg, po and measured upto 24 hrs by LC-MS analysis; type: ADME, organism-based; conditions: in vivo
[20] = Toxicity in Sprague-Dawley rat uterus assessed as change in uterine wet weight at 30 mg/kg, po for 2 days consecutively; type: organism-based; conditions: in vivo, 48 h, time 2 day
[21] = AUCt in ICR mouse at 30 mg/kg, po and measured upto 24 hrs by LC-MS analysis; type: ADME, organism-based; design: time < 24 hrs, dose 30 mg/kg, route po; conditions: in vivo
[22] = Tmax in ICR mouse at 3 mg/kg, iv and measured upto 24 hrs by LC-MS analysis; type: ADME, organism-based; conditions: in vivo
MCF7 [23] = assay: Induction of ER degradation in Estradiol stimulated human MCF7 cells assessed as decrease in PGR gene expression level at 1 to 10 uM incubated for 24 hrs by RT-qPCR analysis; type: cell-based; conditions: dose 1-10 µM
[24] = Toxicity in mouse xenografted with human MCF7 cells assessed as body weight loss at 30 mg/kg,po for 30 days daily; type: organism-based; conditions: in vivo, 720 h, time 30 day
[25] = Cmax in ICR mouse at 3 mg/kg, iv and measured upto 24 hrs by LC-MS analysis; type: ADME, organism-based; design: dose 3 mg/kg, time < 24 hrs, route iv; conditions: in vivo
[26] = MRT(t) in ICR mouse at 30 mg/kg, po and measured upto 24 hrs by LC-MS analysis; type: ADME, organism-based; conditions: in vivo
Mus musculus [27] = assay: In vivo ER degradation in mouse xenografted with human MCF7 cells assessed as reduction in ER expression level in tumor at 30 mg/kg,po for 30 days daily by […]; type: functional, organism-based; conditions: time 30.0 day
[28] = AUC (0 to infinity) in ICR mouse at 30 mg/kg, po and measured upto 24 hrs by LC-MS analysis; type: ADME, organism-based; design: time < 24 hrs, dose 30 mg/kg, route po; conditions: in vivo
[29] = Half life in ICR mouse at 30 mg/kg, po and measured upto 24 hrs by LC-MS analysis; type: ADME, organism-based; conditions: in vivo
[30] = Clearance in ICR mouse at 3 mg/kg, iv and measured upto 24 hrs by LC-MS analysis; type: ADME, organism-based; conditions: in vivo
[31] = Toxicity in mouse xenografted with human MCF7 cells assessed as morphological changes in spleen at 30 mg/kg,po for 30 days daily by Hematoxylin and eosin staining based microscopy; type: organism-based; conditions: in vivo, 720 h, time 30 day
MCF7 [32] = assay: Induction of ER degradation in human MCF7 cells transfected with ERE-luciferase plasmid assessed as decrease in estradiol induced ERE-luciferase activity by measuring luminescence at 10 uM incubated for 24 hrs by luciferase assay; type: cell-based
[33] = C0 in ICR mouse at 3 mg/kg, iv and measured upto 24 hrs by LC-MS analysis; type: ADME, organism-based; conditions: in vivo
MCF7 [34] = assay: Induction of ER degradation in Estradiol stimulated human MCF7 cells assessed as decrease in GREB1 mRNA expression level at 1 to 10 uM incubated for 24 hrs by RT-qPCR analysis; type: cell-based; conditions: dose 1-10 µM
[35] = Toxicity in mouse xenografted with human MCF7 cells assessed as morphological changes in liver at 30 mg/kg,po for 30 days daily by Hematoxylin and eosin staining based microscopy; type: organism-based; conditions: in vivo, 720 h, time 30 day
[36] = MRT (0 to infinity) in ICR mouse at 3 mg/kg, iv and measured upto 24 hrs by LC-MS analysis; type: ADME, organism-based; conditions: in vivo
MCF7 [37] = assay: Induction of ER degradation in Estradiol stimulated human MCF7 cells assessed as decrease in TFF1 gene expression level at 1 to 10 uM incubated for 24 hrs by RT-qPCR analysis; type: cell-based; conditions: dose 1-10 µM
[38] = MRT (0 to infinity) in ICR mouse at 30 mg/kg, po and measured upto 24 hrs by LC-MS analysis; type: ADME, organism-based; conditions: in vivo
MCF7 [39] = assay: Antiproliferative activity against human MCF7 cells assessed as reduction in cell viability; type: functional, cell-based

IC50 (MCF7 [3]): 5.83 µM
SMILES: O=C(O)/C=C/c1ccc(Oc2c(C(=O)c3cccc(F)c3)sc3cc(F)ccc23)cc1
Activity (MCF7 [2]): Active | inhibition at 20 µM (Ishikawa): 9%

IC50 (MCF7 [3]): > 20 µM
SMILES: O=C(O)/C=C/c1ccc(Oc2c(C(=O)c3ccc4ccncc4c3)sc3cc(F)ccc23)cc1
Activity (MCF7 [2]): Active | inhibition at 20 µM (Ishikawa): 36%

Cmax [4]: 5530 ng/mL | AUC(0-t) at 24 h [6]: 4610 ng·h/mL | half-life [8]: 73.8 min | bioavailability [12]: 62.9% | AUC(0-inf) [14]: 4640 ng·h/mL | Vd [16]: 1.13 L/kg | MRT last at 24 h [18]: 58.7 min | Tmax [19]: 20 min | AUC(0-t) at 24 h [21]: 26600 ng·h/mL | Tmax [22]: 1.8 min | Cmax [25]: 4500 ng/mL | MRT last at 24 h [26]: 4.39 h | AUC(0-inf) [28]: 29200 ng·h/mL | half-life [29]: 188 min | clearance [30]: 11 mL/min/kg | C0 at 24 h [33]: 4840 ng/mL | IC50 (MCF7 [3]): 0.055 µM | MRT inf [36]: 1.04 h | MRT inf [38]: 6.06 h
SMILES: Cc1cc(F)cc(C)c1C(=O)c1sc2cc(F)ccc2c1Oc1ccc(/C=C/C(=O)O)cc1
Activity [5]: Non-Toxic | Activity [7]: Non-Toxic | Activity (MCF7 [9]): Active | Activity (MCF7 [10]): Active | Activity (MCF7 [11]): Active | Activity (Mus musculus [13]): Active | Activity (MCF7 [15]): Dose-Dependent Effect | Activity (MCF7 [17]): 56.1% | Activity [20]: Non-Toxic | Activity (MCF7 [23]): Active | Activity (MCF7 [2]): Active | Activity [24]: Non-Toxic | Activity (Mus musculus [27]): Active | Activity [31]: Non-Toxic | Activity (MCF7 [32]): Active | inhibition at 20 µM (Ishikawa): 12% | Activity (MCF7 [34]): Active | Activity [35]: Non-Toxic | Activity (MCF7 [37]): Active

Second part, the compound before the results:

SMILES: Cc1cc(F)cc(C)c1C(=O)c1sc2cc(O)ccc2c1Oc1ccc(/C=C/C(=O)O)cc1 [RINTODESTRANT]
concentration at 0.5 h [1]: 4500 ng/mL

SMILES: O=C(O)/C=C/c1ccc(-c2ccc(Oc3c(C(=O)c4ccccc4)sc4cc(F)ccc34)cc2)cc1
Activity (MCF7 [2]): Active | inhibition at 20 µM (Ishikawa): 8% | IC50 (MCF7 [3]): 9.91 µM

SMILES: CCNCCc1ccc(CN(CC)c2cc(OC)ccc2[C@@H]2CCc3cc(O)ccc3C2)cc1 [ELACESTRANT]
IC50 (MCF7 [39]): 4.2 µM
